Measured values published in PubChem BioAssay AID1963875 (Molecular Pharmacology Branch, DTP, NCI, 2024).

Tested on: KRAS-mutant PDC complex spheroid viability
Assay: Anticancer human tumor 186277-243-T-J2-PDC patient-derived colon adenocarcinoma cell line growth inhibition [KRAS2]
Conditions: for IC50: curve of first compound; for viability, T/C: stronger effect = lower value
How it was run: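 KRAS-mutant tumor cells were grown as spheroids with HUVEC endothelial cells and human MSCs as stroma. Targeted agents were tested alone and with KRAS pathway inhibitors. Doses started at or near clinical Cmax, or 10 microM, descending half-log.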
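Wherever viability, T/C is given: viability read after seven days of compound exposure; 100% = DMSO vehicle-treated spheroids so lower means less viable.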

CC(=O)Nc1cccc(-n2c(=O)n(C3CC3)c(=O)c3c(Nc4ccc(I)cc4F)n(C)c(=O)c(C)c32)c1 + CC1OCC2(CCN(c3cnc(Sc4ccnc(N)c4Cl)c(N)n3)CC2)C1N
IC50 (second compound 0.1 µM): 0.368 nM | IC50 (second compound 0.316 µM): 0.199 nM | IC50 (second compound 1 µM): 0.128 nM | IC50 (second compound 3.16 µM): < 0.1 nM | IC50 (second compound 10 µM): < 0.1 nM | viability, T/C (second compound 0.1 µM, first compound 0.0001 µM): 116% | viability, T/C (second compound 0.1 µM, first compound 0.000316 µM): 56.1% | viability, T/C (second compound 0.1 µM, first compound 0.001 µM): 9.68% | viability, T/C (second compound 0.1 µM, first compound 0.00316 µM): 5% | viability, T/C (second compound 0.1 µM, first compound 0.01 µM): 1.6% | viability, T/C (second compound 0.1 µM, first compound 0.0316 µM): 1.06% | viability, T/C (second compound 0.316 µM, first compound 0.0001 µM): 86.3% | viability, T/C (second compound 0.316 µM, first compound 0.000316 µM): 25.9% | viability, T/C (second compound 0.316 µM, first compound 0.001 µM): 5.13% | viability, T/C (second compound 0.316 µM, first compound 0.00316 µM): 3.78% | viability, T/C (second compound 0.316 µM, first compound 0.01 µM): 3.34% | viability, T/C (second compound 0.316 µM, first compound 0.0316 µM): 0.76% | viability, T/C (second compound 1 µM, first compound 0.0001 µM): 60.8% | viability, T/C (second compound 1 µM, first compound 0.000316 µM): 10.9% | viability, T/C (second compound 1 µM, first compound 0.001 µM): 4.8% | viability, T/C (second compound 1 µM, first compound 0.00316 µM): 1.82% | viability, T/C (second compound 1 µM, first compound 0.01 µM): 0.88% | viability, T/C (second compound 1 µM, first compound 0.0316 µM): 0.76% | viability, T/C (second compound 3.16 µM, first compound 0.0001 µM): 24.4% | viability, T/C (second compound 3.16 µM, first compound 0.000316 µM): 5.11% | viability, T/C (second compound 3.16 µM, first compound 0.001 µM): 2.57% | viability, T/C (second compound 3.16 µM, first compound 0.00316 µM): 1.18% | viability, T/C (second compound 3.16 µM, first compound 0.01 µM): 0.59% | viability, T/C (second compound 3.16 µM, first compound 0.0316 µM): 0.6% | viability, T/C (second compound 10 µM, first compound 0.0001 µM): 10% | viability, T/C (second compound 10 µM, first compound 0.000316 µM): 3.24% | viability, T/C (second compound 10 µM, first compound 0.001 µM): 1.99% | viability, T/C (second compound 10 µM, first compound 0.00316 µM): 0.72% | viability, T/C (second compound 10 µM, first compound 0.01 µM): 0.68% | viability, T/C (second compound 10 µM, first compound 0.0316 µM): 0.55%
